Laboratory results taken from article PMC4832243, “Discovery of Potent VEGFR-2 Inhibitors based on Furopyrimidine and Thienopyrimidne Scaffolds as Cancer Targeting Agents” (Scientific Reports, 2016).

Legend:
MOLT-4 = test: NCI 60 cell line panel (SRB), MOLT-4; type: cell-based; settings: Homo sapiens; MOLT-4, Leukemia; single dose of 10 μM; read-out: Cell Growth Percent
SN12C = test: NCI 60 cell line panel (SRB), SN12C; type: cell-based; settings: Homo sapiens, Renal Cancer, single dose of 10 μM, read-out: Cell Growth Percent
MDA-MB-468 = test: NCI 60 cell line panel (SRB), MDA-MB-468; type: cell-based; settings: Homo sapiens; MDA-MB-468, Breast Cancer; single dose of 10 μM; read-out: Cell Growth Percent
IGROV1 = test: NCI 60 cell line panel (SRB), IGROV1; type: cell-based; settings: Homo sapiens, IGROV-1; IGROV1, Ovarian Cancer; single dose of 10 μM; read-out: Cell Growth Percent
A549/ATCC = test: NCI 60 cell line panel (SRB), A549/ATCC; type: cell-based; settings: Homo sapiens, Non-Small Cell Lung Cancer, single dose of 10 μM, read-out: Cell Growth Percent
K-562 = test: NCI 60 cell line panel (SRB), K-562; type: cell-based; settings: Homo sapiens, K562; K-562, Leukemia; single dose of 10 μM; read-out: Cell Growth Percent
SK-MEL-28 = test: NCI 60 cell line panel (SRB), SK-MEL-28; type: cell-based; settings: Homo sapiens; SK-MEL-28, Melanoma; single dose of 10 μM; read-out: Cell Growth Percent
SNB-75 = test: NCI 60 cell line panel (SRB), SNB-75; type: cell-based; settings: Homo sapiens; SNB-75, CNS Cancer; single dose of 10 μM; read-out: Cell Growth Percent
SNB-19 = test: NCI 60 cell line panel (SRB), SNB-19; type: cell-based; settings: Homo sapiens; SNB-19, CNS Cancer; single dose of 10 μM; read-out: Cell Growth Percent
SR = test: NCI 60 cell line panel (SRB), SR; type: cell-based; settings: Homo sapiens, Leukemia, single dose of 10 μM, read-out: Cell Growth Percent
BT-549 = test: NCI 60 cell line panel (SRB), BT-549; type: cell-based; settings: Homo sapiens; BT-549, Breast Cancer; single dose of 10 μM; read-out: Cell Growth Percent
[1] = test system: HUVEC umbilical vein endothelial cells; test: In vitro HUVEC anti-proliferative assay (alamarBlue); type: cell-based; settings: Homo sapiens, HUVEC proliferation at 10 μM, 72 hours; for activity at 10 µM: read-out: % Cell growth; for inhibition at 10 µM: read-out: % Cell inhibition
HCT-116 = test: NCI 60 cell line panel (SRB), HCT-116; type: cell-based; settings: Homo sapiens; HCT-116, Colon Cancer; single dose of 10 μM; read-out: Cell Growth Percent
SK-MEL-5 = test: NCI 60 cell line panel (SRB), SK-MEL-5; type: cell-based; settings: Homo sapiens; SK-MEL-5, Melanoma; single dose of 10 μM; read-out: Cell Growth Percent
M14 = test: NCI 60 cell line panel (SRB), M14; type: cell-based; settings: Homo sapiens; M14, Melanoma; single dose of 10 μM; read-out: Cell Growth Percent
NCI-H322M = test: NCI 60 cell line panel (SRB), NCI-H322M; type: cell-based; settings: Homo sapiens, Non-Small Cell Lung Cancer, single dose of 10 μM, read-out: Cell Growth Percent
KM12 = test: NCI 60 cell line panel (SRB), KM12; type: cell-based; settings: Homo sapiens; KM12, Colon Cancer; single dose of 10 μM; read-out: Cell Growth Percent
TK-10 = test: NCI 60 cell line panel (SRB), TK-10; type: cell-based; settings: Homo sapiens; TK-10, Renal Cancer; single dose of 10 μM; read-out: Cell Growth Percent
SF-539 = test: NCI 60 cell line panel (SRB), SF-539; type: cell-based; settings: Homo sapiens; SF-539, CNS Cancer; single dose of 10 μM; read-out: Cell Growth Percent
UACC-62 = test: NCI 60 cell line panel (SRB), UACC-62; type: cell-based; settings: Homo sapiens; UACC-62, Melanoma; single dose of 10 μM; read-out: Cell Growth Percent
MALME-3M = test: NCI 60 cell line panel (SRB), MALME-3M; type: cell-based; settings: Homo sapiens, Melanoma, single dose of 10 μM, read-out: Cell Growth Percent
HS 578T = test: NCI 60 cell line panel (SRB), HS 578T; type: cell-based; settings: Homo sapiens, Breast Cancer, single dose of 10 μM, read-out: Cell Growth Percent
OVCAR-5 = test: NCI 60 cell line panel (SRB), OVCAR-5; type: cell-based; settings: Homo sapiens; OVCAR-5, Ovarian Cancer; single dose of 10 μM; read-out: Cell Growth Percent
MDA-MB-435 = test: NCI 60 cell line panel (SRB), MDA-MB-435; type: cell-based; settings: Homo sapiens; MDA-MB-435, Melanoma; single dose of 10 μM; read-out: Cell Growth Percent
786-0 = test: NCI 60 cell line panel (SRB), 786-0; type: cell-based; settings: Homo sapiens; 786-0, Renal Cancer; single dose of 10 μM; read-out: Cell Growth Percent
NCI-H460 = test: NCI 60 cell line panel (SRB), NCI-H460; type: cell-based; settings: Homo sapiens; NCI-H460, Non-Small Cell Lung Cancer; single dose of 10 μM; read-out: Cell Growth Percent

## O=C(Nc1ccccc1)Nc1ccc(Oc2ncnc3sc4c(c23)CCCC4)cc1 [Compound 21a]
MOLT-4
  activity at 10 µM: 54%
SN12C
  activity at 10 µM: 83.3%
MDA-MB-468
  activity at 10 µM: 53.6%
IGROV1
  activity at 10 µM: 87.2%
A549/ATCC
  activity at 10 µM: 67.8%
K-562
  activity at 10 µM: 26.1%
SK-MEL-28
  activity at 10 µM: 86.6%
SNB-75
  activity at 10 µM: 45.6%
SNB-19
  activity at 10 µM: 63.1%
SR
  activity at 10 µM: 24.3%
BT-549
  activity at 10 µM: 63.8%
[1]
  activity at 10 µM: 35.7%
  inhibition at 10 µM: 64.3%
HCT-116
  activity at 10 µM: 67.4%
SK-MEL-5
  activity at 10 µM: 67.9%
M14
  activity at 10 µM: 56.5%
NCI-H322M
  activity at 10 µM: 99.7%
KM12
  activity at 10 µM: 46.4%
TK-10
  activity at 10 µM: 86.1%
SF-539
  activity at 10 µM: 44%
UACC-62
  activity at 10 µM: 66.5%
MALME-3M
  activity at 10 µM: 84.2%
HS 578T
  activity at 10 µM: 73.6%
OVCAR-5
  activity at 10 µM: 107%
MDA-MB-435
  activity at 10 µM: 19.2%
786-0
  activity at 10 µM: 84.8%
NCI-H460
  activity at 10 µM: 70.7%

## COc1cccc(NC(=O)Nc2ccc(Oc3ncnc4sc5c(c34)CCCC5)cc2)c1 [Compound 21c]
MOLT-4
  activity at 10 µM: 46.9%
SN12C
  activity at 10 µM: 78.2%
MDA-MB-468
  activity at 10 µM: 69.3%
IGROV1
  activity at 10 µM: 88.7%
A549/ATCC
  activity at 10 µM: 61.2%
K-562
  activity at 10 µM: 64.6%
SK-MEL-28
  activity at 10 µM: 83.7%
SNB-75
  activity at 10 µM: 50.3%
SNB-19
  activity at 10 µM: 70.2%
SR
  activity at 10 µM: 50.9%
BT-549
  activity at 10 µM: 88.5%
[1]
  activity at 10 µM: 20.9%
  inhibition at 10 µM: 79.2%
HCT-116
  activity at 10 µM: 55.8%
SK-MEL-5
  activity at 10 µM: 63.6%
M14
  activity at 10 µM: 67.3%
NCI-H322M
  activity at 10 µM: 95.8%
KM12
  activity at 10 µM: 27.5%
TK-10
  activity at 10 µM: 73.5%
SF-539
  activity at 10 µM: 53%
UACC-62
  activity at 10 µM: 70.9%
MALME-3M
  activity at 10 µM: 88.5%
HS 578T
  activity at 10 µM: 60.9%
OVCAR-5
  activity at 10 µM: 105%
MDA-MB-435
  activity at 10 µM: 73.1%
786-0
  activity at 10 µM: 97.6%
NCI-H460
  activity at 10 µM: 65.7%

## CCOC(=O)c1c(C)oc2ncnc(Nc3ccc(C(=O)Nc4cccc(Cl)c4)cc3)c12 [Compound 14a]
MOLT-4
  activity at 10 µM: 94%
SN12C
  activity at 10 µM: 94.1%
MDA-MB-468
  activity at 10 µM: 90.9%
IGROV1
  activity at 10 µM: 105%
A549/ATCC
  activity at 10 µM: 95.3%
K-562
  activity at 10 µM: 87%
SK-MEL-28
  activity at 10 µM: 105%
other
  melting point: 226 to 230 °C
SNB-75
  activity at 10 µM: 105%
SNB-19
  activity at 10 µM: 102%
SR
  activity at 10 µM: 74.8%
BT-549
  activity at 10 µM: 87.6%
HCT-116
  activity at 10 µM: 85.5%
SK-MEL-5
  activity at 10 µM: 92.2%
M14
  activity at 10 µM: 95.2%
NCI-H322M
  activity at 10 µM: 99.7%
KM12
  activity at 10 µM: 93.8%
TK-10
  activity at 10 µM: 102%
SF-539
  activity at 10 µM: 107%
UACC-62
  activity at 10 µM: 67.6%
MALME-3M
  activity at 10 µM: 122%
HS 578T
  activity at 10 µM: 107%
OVCAR-5
  activity at 10 µM: 116%
MDA-MB-435
  activity at 10 µM: 106%
786-0
  activity at 10 µM: 96.3%
NCI-H460
  activity at 10 µM: 100%

## Cc1cccc(NC(=O)Nc2ccc(Oc3ncnc4sc5c(c34)CCCC5)cc2)c1 [Compound 21b]
MOLT-4
  activity at 10 µM: 58.1%
SN12C
  activity at 10 µM: 75.9%
MDA-MB-468
  activity at 10 µM: 87.2%
IGROV1
  activity at 10 µM: 89%
A549/ATCC
  activity at 10 µM: 66.5%
K-562
  activity at 10 µM: 57.9%
SK-MEL-28
  activity at 10 µM: 91.6%
SNB-75
  activity at 10 µM: 51.9%
SNB-19
  activity at 10 µM: 72%
SR
  activity at 10 µM: 55.8%
BT-549
  activity at 10 µM: 71.9%
[1]
  activity at 10 µM: 18%
  inhibition at 10 µM: 82%
HCT-116
  activity at 10 µM: 62.1%
SK-MEL-5
  activity at 10 µM: 72.9%
M14
  activity at 10 µM: 68.2%
NCI-H322M
  activity at 10 µM: 91.2%
KM12
  activity at 10 µM: 37.3%
TK-10
  activity at 10 µM: 72.5%
SF-539
  activity at 10 µM: 59.3%
UACC-62
  activity at 10 µM: 75.7%
MALME-3M
  activity at 10 µM: 104%
HS 578T
  activity at 10 µM: 76.8%
OVCAR-5
  activity at 10 µM: 114%
MDA-MB-435
  activity at 10 µM: 79.3%
786-0
  activity at 10 µM: 87%
NCI-H460
  activity at 10 µM: 65.2%
